The test system of assay [1] is BaF3. Briefly: Antileukemic activity against mouse BaF3 cells harbouring BCR-ABL1 T315I mutant non-transduced with 5-FU treated bone marrow xenografted in Balb/c mouse assessed as alteration in B-lymphoid leukemia at 60 mg/kg, po administered twice daily. It is filed as functional, organism-based.
For assay [2], the target named is Dual specificity tyrosine-phosphorylation-regulated kinase 3 (Homo sapiens, UniProt O43781). Nature of the assay: Inhibition of human wild type DYRK3 using RBER-IRStide as substrate preincubated for 2 hrs followed by ATP addition and measured every 2 mins for […] by spectrophotometric analysis.
Chain of Dual specificity tyrosine-phosphorylation-regulated kinase 3 (O43781 whole entry): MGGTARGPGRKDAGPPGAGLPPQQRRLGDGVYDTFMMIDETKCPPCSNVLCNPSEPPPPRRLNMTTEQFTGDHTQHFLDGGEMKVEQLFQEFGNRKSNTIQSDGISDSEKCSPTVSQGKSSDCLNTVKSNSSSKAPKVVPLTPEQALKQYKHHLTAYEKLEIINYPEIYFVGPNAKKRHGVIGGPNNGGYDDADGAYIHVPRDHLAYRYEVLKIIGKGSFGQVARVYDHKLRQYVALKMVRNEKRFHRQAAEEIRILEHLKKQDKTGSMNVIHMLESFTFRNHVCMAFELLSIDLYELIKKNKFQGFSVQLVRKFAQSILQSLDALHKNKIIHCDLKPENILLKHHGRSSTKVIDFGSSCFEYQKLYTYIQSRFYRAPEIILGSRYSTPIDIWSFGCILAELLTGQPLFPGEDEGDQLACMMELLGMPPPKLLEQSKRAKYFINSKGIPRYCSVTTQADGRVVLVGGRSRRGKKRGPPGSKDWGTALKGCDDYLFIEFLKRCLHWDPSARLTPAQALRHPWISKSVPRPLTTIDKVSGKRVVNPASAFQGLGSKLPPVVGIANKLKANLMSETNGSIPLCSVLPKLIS
Assay [3] addresses Tyrosine-protein kinase JAK1 (Homo sapiens, UniProt P23458). Nature of the assay: Inhibition of human wild type JAK1 using RBER-IRStide as substrate preincubated for 2 hrs followed by ATP addition and measured every 2 mins for […] by spectrophotometric analysis.
The nature of assay [4]: Inhibition of human wild type PDGFR beta using Poly(Ala,Glu,Lys,Tyr)6:2:5:1 as substrate preincubated for 2 hrs followed by ATP addition and measured every 2 mins for […] by spectrophotometric analysis.
The target in assay [5] is Activin receptor type-1-like (Homo sapiens, UniProt P37023). Nature of the assay: Inhibition of human wild type ALK1 using Casein as substrate preincubated for 2 hrs followed by ATP addition and measured every 2 mins for […] by spectrophotometric analysis.
Chain of Activin receptor type-1-like (P37023 whole entry): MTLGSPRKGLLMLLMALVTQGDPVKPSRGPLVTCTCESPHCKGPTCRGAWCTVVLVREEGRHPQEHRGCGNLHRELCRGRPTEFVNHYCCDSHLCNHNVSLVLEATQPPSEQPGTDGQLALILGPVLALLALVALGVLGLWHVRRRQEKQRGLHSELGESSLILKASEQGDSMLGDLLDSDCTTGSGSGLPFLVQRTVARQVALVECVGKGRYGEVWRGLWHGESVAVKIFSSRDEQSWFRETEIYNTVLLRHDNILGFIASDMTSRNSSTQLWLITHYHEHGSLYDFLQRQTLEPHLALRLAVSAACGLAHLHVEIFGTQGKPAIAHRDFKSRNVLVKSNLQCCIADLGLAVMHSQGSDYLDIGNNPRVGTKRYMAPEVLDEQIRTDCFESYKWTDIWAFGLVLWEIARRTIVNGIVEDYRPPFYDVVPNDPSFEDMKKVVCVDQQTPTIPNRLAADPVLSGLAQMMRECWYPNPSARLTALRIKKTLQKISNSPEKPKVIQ
For the next assay, the target named is CDK1/Cyclin A (Homo sapiens, UniProt P06493). Nature of the assay: Inhibition of human wild type CDK1/cyclinA using RBER-CHKtide as substrate preincubated for 2 hrs followed by ATP addition and measured every 2 mins for […] by spectrophotometric analysis. The format is protein-complex assay.
Assay [6] addresses Mitogen-activated protein kinase kinase kinase 8 (Homo sapiens, UniProt P41279). Nature of the assay: Inhibition of human wild type COT1 using RBER-CHKtide as substrate preincubated for 2 hrs followed by ATP addition and measured every 2 mins for […] by spectrophotometric analysis.
Assay [7] has as its target Serine/threonine-protein kinase STK11 (Homo sapiens, UniProt Q15831). Nature of the assay: Inhibition of human wild type LKB1 using RB-CTF as substrate preincubated for 2 hrs followed by ATP addition and measured every 2 mins for […] by spectrophotometric analysis.
In assay [8] the target is Myosin light chain kinase (Homo sapiens, UniProt Q32MK0). Nature of the assay: Inhibition of human wild type MLCK using RB-S6P as substrate preincubated for 2 hrs followed by ATP addition and measured every 2 mins for […] by spectrophotometric analysis.
Chain of Myosin light chain kinase (Q32MK0 whole entry): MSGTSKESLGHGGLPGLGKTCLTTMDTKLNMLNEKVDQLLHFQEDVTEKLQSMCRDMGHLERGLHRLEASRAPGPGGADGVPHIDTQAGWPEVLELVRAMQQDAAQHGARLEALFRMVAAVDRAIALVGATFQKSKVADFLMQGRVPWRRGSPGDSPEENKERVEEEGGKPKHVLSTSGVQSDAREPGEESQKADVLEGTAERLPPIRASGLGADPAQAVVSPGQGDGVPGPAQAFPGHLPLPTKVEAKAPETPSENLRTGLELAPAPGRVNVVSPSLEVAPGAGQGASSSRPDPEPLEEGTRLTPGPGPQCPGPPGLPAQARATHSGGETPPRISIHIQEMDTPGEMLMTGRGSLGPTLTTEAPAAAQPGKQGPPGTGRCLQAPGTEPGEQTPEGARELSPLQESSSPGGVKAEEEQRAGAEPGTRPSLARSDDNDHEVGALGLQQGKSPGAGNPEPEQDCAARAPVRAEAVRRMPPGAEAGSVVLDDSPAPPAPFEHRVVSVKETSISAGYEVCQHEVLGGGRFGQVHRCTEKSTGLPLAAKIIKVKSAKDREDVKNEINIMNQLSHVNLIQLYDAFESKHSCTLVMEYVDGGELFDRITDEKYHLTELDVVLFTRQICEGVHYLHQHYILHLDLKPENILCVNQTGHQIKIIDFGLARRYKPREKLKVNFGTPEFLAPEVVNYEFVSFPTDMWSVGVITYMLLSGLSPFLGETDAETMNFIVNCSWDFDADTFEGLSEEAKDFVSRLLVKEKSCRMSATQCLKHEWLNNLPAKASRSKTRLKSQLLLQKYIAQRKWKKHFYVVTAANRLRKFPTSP
The target in assay [9] is Lymphokine-activated killer T-cell-originated protein kinase (Homo sapiens, UniProt Q96KB5). Nature of the assay: Inhibition of human wild type PBK using Histon H1 as substrate preincubated for 2 hrs followed by ATP addition and measured every 2 mins for […] by spectrophotometric analysis.
Chain of Lymphokine-activated killer T-cell-originated protein kinase (Q96KB5 whole entry): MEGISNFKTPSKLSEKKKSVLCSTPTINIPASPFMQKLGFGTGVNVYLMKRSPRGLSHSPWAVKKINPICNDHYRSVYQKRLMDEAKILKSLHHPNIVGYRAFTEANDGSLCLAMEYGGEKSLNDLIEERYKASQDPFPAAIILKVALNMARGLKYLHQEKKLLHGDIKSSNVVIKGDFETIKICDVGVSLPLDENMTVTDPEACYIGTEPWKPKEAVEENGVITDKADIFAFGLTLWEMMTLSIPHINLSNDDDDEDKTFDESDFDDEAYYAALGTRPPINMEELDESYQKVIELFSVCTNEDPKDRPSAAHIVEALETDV
Assay [10] addresses Protein kinase C beta type (Homo sapiens, UniProt P05771). Briefly: Inhibition of human wild type PKCbeta1 using 3xChocktide-PKC(19to 31) as substrate preincubated for 2 hrs followed by ATP addition and measured every 2 mins for […] by spectrophotometric analysis.
In assay [11] the target is cGMP-dependent protein kinase 1 (Homo sapiens, UniProt Q13976). Nature of the assay: Inhibition of human wild type PKG1 alpha using 3xChocktide-PKC(19to 31) as substrate preincubated for 2 hrs followed by ATP addition and measured every 2 mins for […] by spectrophotometric analysis.
Assay [12] addresses Serine/threonine-protein kinase Sgk1 (Homo sapiens, UniProt O00141). Briefly: Inhibition of human wild type SGK1 using RBER-GSK3([…] to […]) as substrate preincubated for 2 hrs followed by ATP addition and measured every 2 mins for […] by spectrophotometric analysis.
Assay [13] addresses Serine/threonine-protein kinase 33 (Homo sapiens, UniProt Q9BYT3). Briefly: Inhibition of human wild type STK33 using RBER-CHKtide as substrate preincubated for 2 hrs followed by ATP addition and measured every 2 mins for […] by spectrophotometric analysis.
Assay [14] deals with Tyrosine-protein kinase TXK (Homo sapiens, UniProt P42681). Nature of the assay: Inhibition of human wild type TXK using RBER-CHKtide as substrate preincubated for 2 hrs followed by ATP addition and measured every 2 mins for […] by spectrophotometric analysis.
Chain of Tyrosine-protein kinase TXK (P42681 whole entry): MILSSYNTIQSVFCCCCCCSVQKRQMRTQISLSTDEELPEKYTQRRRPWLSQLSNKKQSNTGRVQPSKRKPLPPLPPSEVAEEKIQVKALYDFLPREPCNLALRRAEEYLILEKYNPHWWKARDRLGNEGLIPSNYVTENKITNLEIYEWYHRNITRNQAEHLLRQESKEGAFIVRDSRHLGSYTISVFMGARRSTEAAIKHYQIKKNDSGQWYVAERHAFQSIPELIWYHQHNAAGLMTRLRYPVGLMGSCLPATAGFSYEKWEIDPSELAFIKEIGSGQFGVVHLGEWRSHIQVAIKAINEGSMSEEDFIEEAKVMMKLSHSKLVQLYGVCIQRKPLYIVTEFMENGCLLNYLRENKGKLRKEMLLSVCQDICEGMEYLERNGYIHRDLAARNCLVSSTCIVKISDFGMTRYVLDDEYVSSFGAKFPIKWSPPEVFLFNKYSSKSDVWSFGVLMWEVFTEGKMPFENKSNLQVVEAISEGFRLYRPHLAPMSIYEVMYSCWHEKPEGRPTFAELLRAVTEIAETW
Assay [15] relates to BaF3. Nature of the assay: In vivo inhibition of BCR-ABL1 T315I signalling in mouse BaF3 cells harbouring BCR-ABL1 T315I mutant xenografted in Balb/c mouse model at 100 mg/kg, po administered as single dose measured after 8 hrs by flow cytometry analysis. The format is functional, organism-based. (In general: Flow cytometry measures light scatter and fluorescence of single cells or particles in a stream.)

Another assay relates to Mononuclear cell line. Briefly: Inhibition of myeloid colony formation in CML patient derived human Mononuclear cell line. The format is functional, cell-based. As to conditions: dose 50-200 nM.
The subject of another assay is Leukemia cell. Nature of the assay: Cytotoxicity against human Leukemia cell assessed as reduction in cell viability measured after 72 hrs by MTT assay. It is filed as functional, cell-based.
Assay [16] has as its system Tyrosine-protein kinase ABL1 (Homo sapiens), P00519 [T315I]. As to conditions: time 2.0 hrs.

This is an account of results in ChEMBL document CHEMBL5678804 (Cancer Cell, 2011).

Active and inactive are the calls of the source. No cut-off for these calls is given here.

Chain of Serine/threonine-protein kinase STK11 (Q15831 whole entry): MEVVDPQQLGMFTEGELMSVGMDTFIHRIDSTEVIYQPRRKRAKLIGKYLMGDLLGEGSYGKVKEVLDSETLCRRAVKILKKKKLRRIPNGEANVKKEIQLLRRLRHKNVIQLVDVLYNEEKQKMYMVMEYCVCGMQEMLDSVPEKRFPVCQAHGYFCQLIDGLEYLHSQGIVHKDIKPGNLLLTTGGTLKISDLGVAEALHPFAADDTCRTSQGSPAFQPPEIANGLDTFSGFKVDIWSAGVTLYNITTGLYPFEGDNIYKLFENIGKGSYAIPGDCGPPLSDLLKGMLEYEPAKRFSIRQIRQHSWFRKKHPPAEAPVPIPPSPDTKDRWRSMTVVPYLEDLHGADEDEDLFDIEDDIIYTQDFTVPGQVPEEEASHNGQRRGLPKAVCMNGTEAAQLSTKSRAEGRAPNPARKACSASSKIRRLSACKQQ
Chain of Tyrosine-protein kinase JAK1 (P23458 whole entry): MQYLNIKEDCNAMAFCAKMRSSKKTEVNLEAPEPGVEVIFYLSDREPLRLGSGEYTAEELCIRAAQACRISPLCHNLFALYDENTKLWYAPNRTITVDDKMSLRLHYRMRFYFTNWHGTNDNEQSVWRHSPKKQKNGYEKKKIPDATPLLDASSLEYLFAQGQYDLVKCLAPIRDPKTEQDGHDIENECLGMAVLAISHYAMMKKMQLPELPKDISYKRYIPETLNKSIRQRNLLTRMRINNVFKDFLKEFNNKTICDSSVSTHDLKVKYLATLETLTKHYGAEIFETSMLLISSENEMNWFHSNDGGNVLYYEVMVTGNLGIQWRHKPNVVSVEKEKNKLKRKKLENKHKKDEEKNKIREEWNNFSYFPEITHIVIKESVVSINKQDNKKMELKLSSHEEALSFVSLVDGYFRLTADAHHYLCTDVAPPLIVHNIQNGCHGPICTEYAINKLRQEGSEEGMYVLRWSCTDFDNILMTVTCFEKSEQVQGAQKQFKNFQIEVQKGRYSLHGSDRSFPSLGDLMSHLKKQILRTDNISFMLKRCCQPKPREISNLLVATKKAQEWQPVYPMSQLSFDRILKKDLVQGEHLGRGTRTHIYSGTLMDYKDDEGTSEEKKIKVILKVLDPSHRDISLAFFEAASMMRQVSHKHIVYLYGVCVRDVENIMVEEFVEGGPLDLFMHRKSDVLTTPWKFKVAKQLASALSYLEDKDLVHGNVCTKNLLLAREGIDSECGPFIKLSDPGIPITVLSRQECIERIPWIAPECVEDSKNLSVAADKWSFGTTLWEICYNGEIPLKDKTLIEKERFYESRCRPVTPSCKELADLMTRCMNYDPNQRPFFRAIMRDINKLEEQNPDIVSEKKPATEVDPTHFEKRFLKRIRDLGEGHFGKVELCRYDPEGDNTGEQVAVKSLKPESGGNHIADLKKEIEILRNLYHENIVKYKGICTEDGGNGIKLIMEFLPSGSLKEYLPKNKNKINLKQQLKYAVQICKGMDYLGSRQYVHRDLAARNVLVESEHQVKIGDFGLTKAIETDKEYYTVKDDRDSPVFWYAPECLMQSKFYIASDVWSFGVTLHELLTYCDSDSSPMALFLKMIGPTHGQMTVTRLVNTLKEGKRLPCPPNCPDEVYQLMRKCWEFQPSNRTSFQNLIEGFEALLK
Chain of Protein kinase C beta type (P05771 whole entry): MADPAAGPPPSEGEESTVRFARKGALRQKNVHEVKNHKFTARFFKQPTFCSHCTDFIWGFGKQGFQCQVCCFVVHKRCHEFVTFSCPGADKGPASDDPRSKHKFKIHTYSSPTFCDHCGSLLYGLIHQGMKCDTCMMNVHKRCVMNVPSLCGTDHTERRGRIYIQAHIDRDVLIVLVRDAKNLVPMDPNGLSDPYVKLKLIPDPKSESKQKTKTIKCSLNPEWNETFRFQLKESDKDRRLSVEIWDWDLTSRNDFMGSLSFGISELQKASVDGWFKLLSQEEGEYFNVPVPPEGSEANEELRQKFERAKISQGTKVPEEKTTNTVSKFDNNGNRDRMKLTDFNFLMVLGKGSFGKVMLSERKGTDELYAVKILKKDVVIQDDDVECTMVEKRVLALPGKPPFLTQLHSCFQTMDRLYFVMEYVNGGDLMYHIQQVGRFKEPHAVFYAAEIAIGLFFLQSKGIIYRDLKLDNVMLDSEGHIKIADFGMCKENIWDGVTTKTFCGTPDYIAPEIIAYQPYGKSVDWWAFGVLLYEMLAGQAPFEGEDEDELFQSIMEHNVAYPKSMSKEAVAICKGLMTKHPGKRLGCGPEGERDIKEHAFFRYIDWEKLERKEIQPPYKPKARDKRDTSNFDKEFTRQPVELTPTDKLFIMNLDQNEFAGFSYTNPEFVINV

One may read the IC50 as the concentration that gives 50% inhibition. Read a low IC50 as greater potency in that assay. As to `CNC(=O)c1cc(Oc2ccc(NC(=O)Nc3cc(C(C)(C)C)nn3-c3ccc4ncccc4c3)c(F)c2)ccn1` [REBASTINIB], the result in the assay on BaF3 [1] and in the assay with Leukemia cell was Active. In addition, the half-inhibitory concentration (IC50) in assay [2] was 710 nM; in [3], 850 nM; in assay [4], 113 nM; in assay [5], > 1000 nM; at CDK1/Cyclin A it was > 1000 nM; in assay [6], > 1000 nM. Further, the IC50 in assay [7], in [8], in assay [9], in [10], in assay [11] and in [12] was > 1000 nM in each case. The half-inhibitory concentration (IC50) in assay [13] and in [14] was > 1000 nM throughout. For the same compound, in the assay with BaF3 [15], the inhibition result was “Active”. For the same compound, the inhibition entry in the assay on Mononuclear cell line is “Dose-Dependent Effect”. Moreover, the T1/2 in [16] was determined as 8.97 h.
